Assay results: patent EP2998294A1, “Naphthyl sulfonamide phenyl derivatives as KEAP-1 modulators for the treatment of diabetes, obesity, dyslipidemia and related disorders” (SANOFI, priority 2014, dated 2016)

Biological target: T1, human Keap1 kelch domain (amino acids Ala321-Thr609) (Homo sapiens, UniProt Q14145)
T1 construct: human Keap1 kelch domain (amino acids Ala321-Thr609)
Test: Keap1-Nrf2 peptide binding assay (fluorescence polarisation)
Conditions: binding of Keap1 kelch domain (20 nM) to fluorescently labeled Nrf2 peptide (50 nM)
Method: A fluorescence polarisation assay was used to measure binding of the human Keap1 kelch domain (amino acids Ala321-Thr609) to a fluorescently labeled peptide containing a Keap1 binding site of human Nrf2 (Alexa633-AFFAQLQLDEETGEFL; JPT Technologies, Berlin, Germany). Two microliters of test compound in reaction buffer (phosphate-buffered saline, 2 mM DL-dithiothreitol, 0.015 % (v/v) Brij-35) containing 6 % (v/v) DMSO were mixed with two microliters of the Keap1 kelch domain in reaction buffer in a black 384-well small volume microtiter plate and incubated at ambient temperature for 15 minutes. Thereafter, two microliters were added of the fluorescently labeled Nrf2 peptide in reaction buffer, and the mixture was incubated for a further 30 minutes at ambient temperature. Final concentrations of the Keap1 kelch domain and the fluorescently labeled Nrf2 peptide were 20 nM and 50 nM, respectively.
Fluorescence polarization (FP) was measured at excitation and emission wavelengths of 635 nm and 660 nm, respectively. Positive controls for binding (two microliters of reaction buffer containing 6 % (v/v) DMSO instead of test compound in the same buffer) and negative controls (as positive controls, but without Keap1 kelch domain) were included on each microtiter plate. Data were expressed as percent-inhibition values: percentinhibition = 100⋅(1-(|FPcompound-FPnegative controle|)/(|FPpositive controle-FPnegative controle|)) [formula]
IC50 values were determined by testing different compound concentrations and fitting the resulting percent-inhibition values to the following equation using XLFit4: percentinhibition = A + (B-A)/(1 + (((IC50)/([Compound])))^D) [formula]
Parameter A was set to zero, pre-fit values for parameters B and D were set to 100 and 1, respectively.

T1 sequence (Q14145 321-609): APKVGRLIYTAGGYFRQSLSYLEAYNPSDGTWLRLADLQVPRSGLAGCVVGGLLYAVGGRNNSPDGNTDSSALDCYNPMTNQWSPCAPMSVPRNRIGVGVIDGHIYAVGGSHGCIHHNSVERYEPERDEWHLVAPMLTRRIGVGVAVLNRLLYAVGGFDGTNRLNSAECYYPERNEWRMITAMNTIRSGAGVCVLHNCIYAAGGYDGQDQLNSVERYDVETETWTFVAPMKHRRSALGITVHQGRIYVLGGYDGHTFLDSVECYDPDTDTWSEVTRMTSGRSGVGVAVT

| Compound | IC50 |
| --- | --- |
| Cc1c(Cl)cccc1S(=O)(=O)Nc1ccc(-c2cccc(C(=O)O)c2)c2ccccc12 [Example 13, 3-[4-[(3-chloro-2-methylphenyl)sulfonylamino]-1-naphthyl]benzoic acid] | 1.1 µM |
| O=C(O)c1cccc(-c2ccc(NS(=O)(=O)c3ccc(Cl)cc3Cl)c3ccccc23)c1 [Example 15, 3-[4-[(2,4-dichlorophenyl)sulfonylamino]-1-naphthyl]benzoic acid] | 1 µM |
| O=C(O)c1cccc(-c2ccc(NS(=O)(=O)c3cc(Cl)c(Cl)s3)c3ccccc23)c1 [Example 19, 3-[4-[(4,5-dichloro-2-thienyl)sulfonylamino]-1-naphthyl]benzoic acid] | 7 µM |
| Cc1cccc(Cl)c1S(=O)(=O)Nc1ccc(-c2cccc(C(=O)O)c2)c2ccccc12 [Example 21, 3-[4-[(2-chloro-6-methylphenyl)sulfonylamino]-1-naphthyl]benzoic acid] | 1.8 µM |
| N#Cc1ccc(S(=O)(=O)Nc2ccc(-c3cccc(C(=O)O)c3)c3ccccc23)c(Cl)c1 [Example 33, 3-[4-[(2-chloro-4-cyanophenyl)sulfonylamino]-1-naphthyl]benzoic acid] | 5.2 µM |
| O=C(O)c1cccc(-c2ccc(NS(=O)(=O)c3cccc(Cl)c3Cl)c3ccccc23)c1 [Example 34, 3-[4-[(2,3-dichlorophenyl)sulfonylamino]-1-naphthyl]benzoic acid] | 1.5 µM |
| O=C(O)c1cccc(-c2ccc(NS(=O)(=O)c3ccc(F)cc3Cl)c3ccccc23)c1 [Example 35, 3-[4-[(2-chloro-4-fluorophenyl)sulfonylamino]-1-naphthyl]benzoic acid] | 5.6 µM |

Same assay, conditions: binding of Keap1 kelch domain (20 nM) to fluorescently labeled Nrf2 peptide (50 nM); read-out: IC50

| IC50 | Compound |
| --- | --- |
| 0.2 µM | Cc1cc(C)c(C)c(S(=O)(=O)Nc2ccc(-c3cccc(C(=O)O)c3)c3ccccc23)c1C [Example 1, 3-[4-[(2,3,5,6-tetramethyl-phenyl)-sulfonylamino]-1-naphthyl]benzoic acid] |
| 4.5 µM | COc1ccc(S(=O)(=O)Nc2ccc(-c3cccc(C(=O)O)c3)c3ccccc23)c(OC)c1 [Example 2, 3-[4-[(2,4-dimethoxyphenyl)sulfonylamino]-1-naphthyl]benzoic acid] |
| 2.1 µM | Cc1ccc(S(=O)(=O)Nc2ccc(-c3cccc(C(=O)O)c3)c3ccccc23)cc1 [Example 3, 3-[4-(p-tolylsulfonylamino)-1-naphthyl]benzoic acid] |
| 0.2 µM | Cc1cc(C)c(C)c(S(=O)(=O)Nc2ccc(-c3cccc(C(=O)O)c3F)c3ccccc23)c1C [Example 4, 2-fluoro-3-[4-[(2,3,5,6-tetramethylphenyl)sulfonylamino]-1-naphthyl]benzoic acid] |
| 0.09 µM | Cc1cc(C)c(C)c(S(=O)(=O)Nc2ccc(-c3cc(C(=O)O)ccc3F)c3ccccc23)c1C [Example 5, 4-fluoro-3-[4-[(2,3,5,6-tetramethylphenyl)sulfonylamino]-1-naphthyl]benzoic acid] |
| 1.7 µM | Cc1cc(C)c(C)c(S(=O)(=O)Nc2ccc(-c3ccc(F)c(C(=O)O)c3)c3ccccc23)c1C [Example 6, 2-fluoro-5-[4-[(2,3,5,6-tetramethylphenyl)sulfonylamino]-1-naphthyl]benzoic acid] |
| 1.1 µM | Cc1ccc2c(NS(=O)(=O)c3c(C)c(C)cc(C)c3C)ccc(-c3cccc(C(=O)O)c3)c2n1 [Example 7, 3-[2-methyl-5-[(2,3,5,6-tetramethylphenyl)sulfonylamino]-8-quinolyl]benzoic acid] |
| 5.2 µM | Cc1nc(-c2ccc(C(F)(F)F)cc2)sc1S(=O)(=O)Nc1ccc(-c2cccc(C(=O)O)c2F)c2ccccc12 [Example 8, 2-fluoro-3-[4-[[4-methyl-2-[4-(trifluoromethyl)phenyl]thiazol-5-yl]sulfonylamino]-1-naphthyl]benzoic acid] |
| 5.8 µM | Cc1nc(-c2ccc(C(F)(F)F)cc2)sc1S(=O)(=O)Nc1ccc(-c2cc(C(=O)O)ccc2F)c2ccccc12 [Example 9, 4-fluoro-3-[4-[[4-methyl-2-[4-(trifluoromethyl)phenyl]thiazol-5-yl]sulfonylamino]-1-naphthyl]benzoic acid] |
| 2.5 µM | Cc1cc(C)c(C)c(S(=O)(=O)Nc2ccc(-c3cccc(C(=O)O)c3O)c3ccccc23)c1C [Example 10, 2-hydroxy-3-[4-[(2,3,5,6-tetramethylphenyl)sulfonylamino]-1-naphthyl]benzoic acid] |
| 2.8 µM | CC(=O)Nc1nc(C)c(S(=O)(=O)Nc2ccc(-c3cccc(C(=O)O)c3)c3ccccc23)s1 [Example 11, 3-[4-[(2-acetamido-4-methyl-thiazol-5-yl)sulfonylamino]-1-naphthyl]benzoic acid] |
| 0.4 µM | Cc1nn(C)c(Cl)c1S(=O)(=O)Nc1ccc(-c2cccc(C(=O)O)c2)c2ccccc12 [Example 12, 3-[4-[(5-chloro-1,3-dimethyl-pyrazol-4-yl)sulfonylamino]-1-naphthyl]benzoic acid] |
| 3.8 µM | Cc1cc(S(=O)(=O)Nc2ccc(-c3cccc(C(=O)O)c3)c3ccccc23)c(Cl)cc1Cl [Example 14, 3-[4-[(2,4-dichloro-5-methylphenyl)sulfonylamino]-1-naphthyl]benzoic acid] |
| 6.5 µM | O=C(O)c1cccc(-c2ccc(NS(=O)(=O)c3c(F)cccc3F)c3ccccc23)c1 [Example 16, 3-[4-[(2,6-difluorophenyl)sulfonylamino]-1-naphthyl]benzoic acid] |
| 1.6 µM | Cc1c(S(=O)(=O)Nc2ccc(-c3cccc(C(=O)O)c3)c3ccccc23)sc2ccc(Cl)cc12 [Example 17, 3-[4-[(5-chloro-3-methyl-benzothiophen-2-yl)sulfonylamino]-1-naphthyl]benzoic acid] |
| 5.8 µM | COc1cc(C)ccc1S(=O)(=O)Nc1ccc(-c2cccc(C(=O)O)c2)c2ccccc12 [Example 18, 3-[4-[(2-methoxy-4-methylphenyl)sulfonylamino]-1-naphthyl]benzoic acid] |
| 4 µM | O=C(O)c1cccc(-c2ccc(NS(=O)(=O)c3ccc(-n4cccn4)cc3)c3ccccc23)c1 [Example 20, 3-[4-[(4-pyrazol-1-ylphenyl)sulfonylamino]-1-naphthyl]benzoic acid] |
| 0.8 µM | Cc1nn(C)c(C)c1S(=O)(=O)Nc1ccc(-c2cccc(C(=O)O)c2)c2ccccc12 [Example 22, 3-[4-[(1,3,5-trimethylpyrazol-4-yl)sulfonylamino]-1-naphthyl]benzoic acid] |
| 4.5 µM | Cc1c(S(=O)(=O)Nc2ccc(-c3cccc(C(=O)O)c3)c3ccccc23)cnn1-c1ccccc1 [Example 23, 3-[4-[(5-methyl-1-phenyl-pyrazol-4-yl)sulfonylamino]-1-naphthyl]benzoic acid] |
| 4.6 µM | Cc1nc(C)c(S(=O)(=O)Nc2ccc(-c3cccc(C(=O)O)c3)c3ccccc23)s1 [Example 24, 3-[4-[(2,4-dimethylthiazol-5-yl)sulfonylamino]-1-naphthyl]benzoic acid] |
| 3 µM | Cc1ccc2sc(S(=O)(=O)Nc3ccc(-c4cccc(C(=O)O)c4)c4ccccc34)cc2c1 [Example 25, 3-[4-[(5-methylbenzothiophen-2-yl)sulfonylamino]-1-naphthyl]benzoic acid] |
| 2.5 µM | O=C(O)c1cccc(-c2ccc(NS(=O)(=O)c3ccc(N4CCCC4=O)cc3)c3ccccc23)c1 [Example 26, 3-[4-[[4-(2-oxopyrrolidin-1-yl)phenyl]sulfonylamino]-1-naphthyl]benzoic acid] |
| 3.6 µM | CC(=O)N1c2ccc(S(=O)(=O)Nc3ccc(-c4cccc(C(=O)O)c4)c4ccccc34)cc2CC1C (stereo not drawn) [Example 27, 3-[4-[(1-acetyl-2-methyl-indolin-5-yl)sulfonylamino]-1-naphthyl]benzoic acid] |
| 5.1 µM | Cc1ccc(F)c(S(=O)(=O)Nc2ccc(-c3cccc(C(=O)O)c3)c3ccccc23)c1 [Example 28, 3-[4-[(2-fluoro-5-methylphenyl)sulfonylamino]-1-naphthyl]benzoic acid] |
| 5.1 µM | O=C(O)c1cccc(-c2ccc(NS(=O)(=O)c3ccc4[nH]c(=O)sc4c3)c3ccccc23)c1 [Example 29, 3-[4-[(2-oxo-3H-1,3-benzothiazol-6-yl)sulfonylamino]-1-naphthyl]benzoic acid] |
| 4.3 µM | CC(=O)N1CCCc2cc(S(=O)(=O)Nc3ccc(-c4cccc(C(=O)O)c4)c4ccccc34)ccc21 [Example 30, 3-[4-[(1-acetyl-3,4-dihydro-2H-quinolin-6-yl)sulfonylamino]-1-naphthyl]benzoic acid] |
| 3.2 µM | CC(=O)Nc1ccc(C)c(S(=O)(=O)Nc2ccc(-c3cccc(C(=O)O)c3)c3ccccc23)c1 [Example 31, 3-[4-[(5-acetamido-2-methylphenyl)sulfonylamino]-1-naphthyl]benzoic acid] |
| 3.3 µM | COc1ccc(F)c(S(=O)(=O)Nc2ccc(-c3cccc(C(=O)O)c3)c3ccccc23)c1 [Example 32, 3-[4-[(2-fluoro-5-methoxyphenyl)sulfonylamino]-1-naphthyl]benzoic acid] |
| 4.2 µM | O=C(O)c1cccc(-c2ccc(NS(=O)(=O)c3ccc(N4CCOCC4)nc3)c3ccccc23)c1 [Example 36, 3-[4-[(6-morpholino-3-pyridyl)sulfonylamino]-1-naphthyl]benzoic acid] |
